Where “and” joins values, the source holds several entries; their conditions need not be identical. Identical values can stand only once.
Tests used:
Assay in all cases: biochemical
Design in all cases: endogenous in cells; host or cells: K562 cell extract; species or system K562 (extract); replicate k of n = 2 (each experiment ID is one independent experiment; two experiment IDs per compound)
Conditions in all cases: read-out: KDapp
BUB1 = BUB1 (Homo sapiens, UniProt O43683)
DYRK1A = DYRK1A (Homo sapiens, UniProt Q13627)
MAP3K3 = target: T1, MAP3K3 (Homo sapiens, UniProt Q99759)
T1 sequence (Q99759 1-626): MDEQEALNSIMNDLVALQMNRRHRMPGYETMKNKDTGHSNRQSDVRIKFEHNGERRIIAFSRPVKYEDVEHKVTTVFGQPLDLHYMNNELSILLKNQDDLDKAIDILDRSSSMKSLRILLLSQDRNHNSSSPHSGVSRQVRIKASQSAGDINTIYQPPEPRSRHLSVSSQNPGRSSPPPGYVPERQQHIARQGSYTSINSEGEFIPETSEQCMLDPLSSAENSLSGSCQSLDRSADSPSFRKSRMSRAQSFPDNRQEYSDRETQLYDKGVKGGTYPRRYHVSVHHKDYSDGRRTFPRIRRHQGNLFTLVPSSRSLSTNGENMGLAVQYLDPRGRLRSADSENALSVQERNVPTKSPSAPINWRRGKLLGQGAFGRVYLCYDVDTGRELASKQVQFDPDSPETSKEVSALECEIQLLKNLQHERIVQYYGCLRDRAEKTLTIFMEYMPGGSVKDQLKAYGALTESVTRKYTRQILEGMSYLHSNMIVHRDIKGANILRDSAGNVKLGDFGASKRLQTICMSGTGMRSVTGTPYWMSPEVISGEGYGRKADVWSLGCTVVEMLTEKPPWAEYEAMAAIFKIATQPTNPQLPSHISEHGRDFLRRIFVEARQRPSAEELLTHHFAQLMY

MARK3 = MARK3 (Homo sapiens, UniProt P27448)
Chain of MARK3 (P27448 whole entry): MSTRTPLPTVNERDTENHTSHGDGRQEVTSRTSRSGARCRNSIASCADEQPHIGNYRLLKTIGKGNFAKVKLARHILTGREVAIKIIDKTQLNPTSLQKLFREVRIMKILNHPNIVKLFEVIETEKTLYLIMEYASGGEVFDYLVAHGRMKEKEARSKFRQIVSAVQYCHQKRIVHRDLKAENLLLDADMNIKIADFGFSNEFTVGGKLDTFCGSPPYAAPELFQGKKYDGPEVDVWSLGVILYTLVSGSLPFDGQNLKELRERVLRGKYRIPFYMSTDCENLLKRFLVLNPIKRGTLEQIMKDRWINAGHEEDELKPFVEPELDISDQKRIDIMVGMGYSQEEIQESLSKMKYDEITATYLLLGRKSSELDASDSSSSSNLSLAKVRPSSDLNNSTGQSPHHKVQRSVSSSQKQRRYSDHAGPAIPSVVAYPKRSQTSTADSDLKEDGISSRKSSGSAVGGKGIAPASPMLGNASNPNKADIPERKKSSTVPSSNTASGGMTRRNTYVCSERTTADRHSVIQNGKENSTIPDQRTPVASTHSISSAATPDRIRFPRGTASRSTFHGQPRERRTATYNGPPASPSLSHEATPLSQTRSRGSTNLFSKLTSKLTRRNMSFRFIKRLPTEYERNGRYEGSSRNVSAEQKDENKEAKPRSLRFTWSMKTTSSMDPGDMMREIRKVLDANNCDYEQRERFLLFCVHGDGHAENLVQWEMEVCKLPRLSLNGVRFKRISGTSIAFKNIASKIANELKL

SRC = SRC (Homo sapiens, UniProt P12931)
Chain of SRC (P12931 whole entry): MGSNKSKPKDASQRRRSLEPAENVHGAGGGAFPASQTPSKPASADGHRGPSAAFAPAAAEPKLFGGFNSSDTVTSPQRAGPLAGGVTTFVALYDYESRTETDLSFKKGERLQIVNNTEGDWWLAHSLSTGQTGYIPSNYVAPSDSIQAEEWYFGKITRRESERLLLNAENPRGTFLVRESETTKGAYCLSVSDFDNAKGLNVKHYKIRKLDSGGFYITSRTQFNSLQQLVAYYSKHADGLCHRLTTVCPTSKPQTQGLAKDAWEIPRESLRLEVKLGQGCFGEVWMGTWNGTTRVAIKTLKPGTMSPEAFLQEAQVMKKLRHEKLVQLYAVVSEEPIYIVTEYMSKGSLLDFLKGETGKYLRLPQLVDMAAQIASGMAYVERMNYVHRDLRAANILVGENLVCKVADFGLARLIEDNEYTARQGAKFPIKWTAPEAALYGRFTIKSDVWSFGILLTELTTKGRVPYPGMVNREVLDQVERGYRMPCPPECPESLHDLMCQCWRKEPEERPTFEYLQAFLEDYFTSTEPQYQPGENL

LATS1 = target: T2, LATS1 (Homo sapiens, UniProt O95835)
T2 sequence (O95835 1-1130): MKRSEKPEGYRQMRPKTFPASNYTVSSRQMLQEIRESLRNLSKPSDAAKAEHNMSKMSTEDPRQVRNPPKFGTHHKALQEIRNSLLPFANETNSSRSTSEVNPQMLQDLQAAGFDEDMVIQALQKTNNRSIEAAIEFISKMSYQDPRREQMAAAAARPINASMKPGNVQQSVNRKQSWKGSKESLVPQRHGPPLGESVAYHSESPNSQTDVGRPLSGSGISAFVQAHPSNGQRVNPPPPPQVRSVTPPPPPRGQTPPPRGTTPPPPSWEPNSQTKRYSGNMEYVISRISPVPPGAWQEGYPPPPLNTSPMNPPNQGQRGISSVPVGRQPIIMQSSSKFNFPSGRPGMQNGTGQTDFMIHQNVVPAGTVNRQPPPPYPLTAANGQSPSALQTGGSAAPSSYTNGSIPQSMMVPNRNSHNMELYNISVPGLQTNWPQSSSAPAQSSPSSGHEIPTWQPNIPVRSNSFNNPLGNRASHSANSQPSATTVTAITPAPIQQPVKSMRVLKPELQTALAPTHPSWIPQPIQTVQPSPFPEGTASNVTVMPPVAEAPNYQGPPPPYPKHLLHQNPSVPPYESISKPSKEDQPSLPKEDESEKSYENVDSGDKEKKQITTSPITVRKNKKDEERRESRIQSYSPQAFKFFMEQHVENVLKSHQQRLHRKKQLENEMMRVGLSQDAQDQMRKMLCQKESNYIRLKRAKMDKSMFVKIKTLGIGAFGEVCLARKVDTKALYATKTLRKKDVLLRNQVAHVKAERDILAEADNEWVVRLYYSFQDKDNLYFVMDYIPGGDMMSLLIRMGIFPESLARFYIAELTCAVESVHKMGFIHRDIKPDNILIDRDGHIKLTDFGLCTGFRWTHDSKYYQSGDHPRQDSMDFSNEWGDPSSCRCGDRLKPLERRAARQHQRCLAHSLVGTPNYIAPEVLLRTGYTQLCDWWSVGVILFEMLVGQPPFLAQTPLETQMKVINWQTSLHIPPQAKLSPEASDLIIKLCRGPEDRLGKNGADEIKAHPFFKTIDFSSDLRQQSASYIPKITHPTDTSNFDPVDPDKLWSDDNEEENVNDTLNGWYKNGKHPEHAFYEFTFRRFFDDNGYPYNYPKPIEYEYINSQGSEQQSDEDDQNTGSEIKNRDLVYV

CSK = CSK (Homo sapiens, UniProt P41240)
Chain of CSK (P41240 whole entry): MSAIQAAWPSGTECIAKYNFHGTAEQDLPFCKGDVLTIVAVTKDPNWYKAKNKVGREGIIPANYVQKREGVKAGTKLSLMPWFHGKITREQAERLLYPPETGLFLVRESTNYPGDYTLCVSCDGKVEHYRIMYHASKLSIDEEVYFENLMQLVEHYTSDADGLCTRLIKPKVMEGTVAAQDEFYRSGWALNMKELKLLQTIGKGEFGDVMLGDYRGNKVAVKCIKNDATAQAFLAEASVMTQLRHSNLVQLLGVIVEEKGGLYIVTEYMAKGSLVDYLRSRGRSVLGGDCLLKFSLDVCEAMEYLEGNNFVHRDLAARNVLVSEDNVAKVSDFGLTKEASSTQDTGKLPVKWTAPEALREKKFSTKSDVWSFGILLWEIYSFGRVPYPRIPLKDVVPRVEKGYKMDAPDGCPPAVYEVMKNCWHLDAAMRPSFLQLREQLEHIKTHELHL

Chain of BUB1 (O43683 whole entry): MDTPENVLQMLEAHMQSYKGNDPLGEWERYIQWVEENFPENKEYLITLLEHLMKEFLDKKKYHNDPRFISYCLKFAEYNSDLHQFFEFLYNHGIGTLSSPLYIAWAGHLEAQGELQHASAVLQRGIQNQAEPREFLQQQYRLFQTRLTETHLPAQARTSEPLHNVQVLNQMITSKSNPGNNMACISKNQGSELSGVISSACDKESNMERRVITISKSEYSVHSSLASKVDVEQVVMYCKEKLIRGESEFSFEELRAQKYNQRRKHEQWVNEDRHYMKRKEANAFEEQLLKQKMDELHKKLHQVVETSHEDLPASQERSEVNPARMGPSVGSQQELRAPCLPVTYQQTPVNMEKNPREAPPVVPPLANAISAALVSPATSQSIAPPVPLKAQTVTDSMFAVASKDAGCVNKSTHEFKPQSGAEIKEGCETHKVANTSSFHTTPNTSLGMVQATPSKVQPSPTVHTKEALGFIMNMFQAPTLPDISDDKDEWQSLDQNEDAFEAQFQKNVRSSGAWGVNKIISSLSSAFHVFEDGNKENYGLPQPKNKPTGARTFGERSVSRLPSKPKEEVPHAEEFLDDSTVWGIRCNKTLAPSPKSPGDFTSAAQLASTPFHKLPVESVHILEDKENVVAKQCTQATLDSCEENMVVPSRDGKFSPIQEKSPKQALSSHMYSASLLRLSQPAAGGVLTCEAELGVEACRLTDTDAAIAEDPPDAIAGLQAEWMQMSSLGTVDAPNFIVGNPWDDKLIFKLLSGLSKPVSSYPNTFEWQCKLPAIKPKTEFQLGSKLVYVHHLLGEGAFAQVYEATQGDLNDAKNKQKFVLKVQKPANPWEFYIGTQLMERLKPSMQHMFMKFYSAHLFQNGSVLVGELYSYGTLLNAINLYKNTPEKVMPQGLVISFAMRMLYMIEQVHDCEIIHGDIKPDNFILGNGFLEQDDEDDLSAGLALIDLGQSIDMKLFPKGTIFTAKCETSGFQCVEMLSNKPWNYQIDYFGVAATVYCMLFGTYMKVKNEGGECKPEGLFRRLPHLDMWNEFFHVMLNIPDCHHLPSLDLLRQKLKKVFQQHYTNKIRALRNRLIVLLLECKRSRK

| SMILES | Kd (BUB1) | Kd (DYRK1A) | Kd (MAP3K3) [nM] | Kd (MARK3) | Kd (SRC) | Kd (LATS1) [nM] | Kd (CSK) [nM] |
| --- | --- | --- | --- | --- | --- | --- | --- |
| CN1CCN(c2ccc(Nc3ncc(C#N)c(Nc4ccccc4C(N)=O)n3)cc2)CC1.Cl [TCMDC-134116] | 127 nM and 110 nM | 286 nM and 263 nM | 176 | 66.6 nM and 77.7 nM | 184 nM and 157 nM | 174 | 2470 |
| Cl.NCC1(c2nc(-c3ccc(Cl)c(O)c3)c(-c3ccncc3)[nH]2)CCCCC1 [TCMDC-141154] | 82.5 nM and 58.4 nM |  |  |  | 111 nM | 911 | 2650 |
| CN(C)CC(O)COc1ccc(Nc2ncc([N+](=O)[O-])c(Nc3ccccc3O)n2)cc1.O=C(O)C(F)(F)F (centres unmarked) [TCMDC-141399] |  | 2860 nM | 3400 | 5550 nM and 3660 nM |  |  |  |

— PMC4774911, “Biochemical Screening of Five Protein Kinases from Plasmodium falciparum against 14,000 Cell-Active Compounds” (PLoS ONE, 2016)
